According to US20230055500A1, “COMPOSITION FOR PREVENTING OR TREATING ISCHEMIA REPERFUSION INJURY COMPRISING NADPH OXIDASE 1 INHIBITOR AS ACTIVE INGREDIENT” (KYUNGPOOK NATIONAL UNIVERSITY INDUSTRY-ACADEMIC COOPERATION …, priority 2020, published 2023):
Entries after “also recorded” stand apart in the source; their conditions may differ.

Tests used:
[1] = tested on: reactive oxygen species (ROS); test: Reactive oxygen species measurement in the kidney (IRI model); format: in vivo; details: C57BL/6 mice, renal IRI, 60 mg/kg intraperitoneal; FIG. 2d, 2e
Experimental: (§1) C57BL/6 mice were intraperitoneally injected with 60 mg/kg of ML171, a selective NOX inhibitor or excipient at a time, renal ischemia-reperfusion injury (IRI) was induced by clamping bilateral renal vessels for 30 min. MDCK cells were incubated with H2O2 (1.4 mM) for 1 h to induce oxidative stress and treated with ML171 (1 and 2.5 μM). Renal damage was estimated using renal function tests and histology. NOX expression, oxidative stress markers, apoptosis assays and MAPK pathways were also evaluated in renal tissue and MDCK cells.

apoptosis = test: Apoptosis assays in the kidney (Caspase-3 activity, TUNEL, BCL-2/BAX; IRI model); format: in vivo; details: C57BL/6 mice, renal IRI, 60 mg/kg intraperitoneal
Experimental: as §1

MDCK cells [2] = test: NOX-related gene and oxidative stress marker expression in H2O2-treated MDCK cells; format: cell-based; details: H2O2 1.4 mM 1 h, ML171 1 and 2.5 μM
Experimental: as §1

ERK [3] = test: MAPK pathway (ERK phosphorylation) in H2O2-treated MDCK cells; format: cell-based; details: H2O2 1.4 mM 1 h, ML171 1 and 2.5 μM, FIG. 8a, 8b
Experimental: as §1

MDCK cells [4] = test: ROS production in H2O2-treated MDCK cells; format: cell-based; details: H2O2 1.4 mM 1 h, ML171 1 and 2.5 μM, FIG. 6f
Experimental: as §1

NOX = NOX mRNA expression in mouse kidney (IRI model); format: in vivo; details: C57BL/6 mice, renal IRI, 60 mg/kg intraperitoneal; FIG. 2a, 2b
Experimental: as §1

MDCK cells [5] = test: Apoptosis assays in H2O2-treated MDCK cells (Caspase-3 activity, BCL-2/BAX, TUNEL); format: cell-based; details: H2O2 1.4 mM 1 h, ML171 1 and 2.5 μM
Experimental: as §1

[6] = tested on: renal ischemia-reperfusion injury (IRI); test: Renal ischemia-reperfusion injury mouse model: renal function tests and histology; format: in vivo, C57BL/6 mice; details: for tissue damage due to ischemia-reperfusion (IRI-mediated damage): mouse model of renal ischemia reperfusion, overall statement
Experimental: as §1

ERK [7] = test: MAPK pathway western blot in kidney tissue (IRI model); format: in vivo; details: C57BL/6 mice, renal IRI, 60 mg/kg intraperitoneal, FIG. 5a, 5b
Experimental: as §1

Compound: CC(=O)c1ccc2c(c1)Nc1ccccc1S2 [ML171]
- reactive oxygen species (ROS) in the kidney [1]: effectively blocked ROS
- Caspase-3 activity in the kidney (apoptosis; FIG. 3a, 60 mg/kg): significant apoptosis alleviation effect; also recorded: reversed a decrease in Bcl-2 and an increase in Caspase-3 activity
- apoptosis, TUNEL assay histological staining of kidney (apoptosis; FIG. 3b): alleviated apoptosis
- protein expression levels of apoptosis markers BCL-2 and BAX in the kidneys (apoptosis; FIG. 3c, 60 mg/kg): effectively inhibited apoptosis; also recorded: reversed a decrease in Bcl-2
- changes in oxidative stress-related enzymes, SOD and GXP production (MDCK cells [2]): alleviated by ML171 treatment
- expression of NOX-related genes / oxidative stress markers (NOX1, NOX2, p40) (MDCK cells [2]; FIG. 6a-6e): effectively decreased; also recorded: reduced the expression of NOX1, NOX2 and p40
- ERK phosphorylation in MDCK cells (ERK [3]): significantly reduced and regulated this; also recorded: affect ERK signaling
- ROS production in cells (MDCK cells [4]): significantly reduced ROS
- NOX mRNA expression level in mouse kidney (NOX): significantly reduced
- Caspase-3 activity (MDCK cells [5]; FIG. 7a): a decrease in Caspase-3 activity
- protein expression levels of apoptosis markers BCL-2 and BAX (MDCK cells [5]; FIG. 7b): apoptosis was significantly inhibited; also recorded: significant increase in Bcl-2 levels
- apoptosis pattern, intracellular TUNEL assay staining (MDCK cells [5]; FIG. 7c): effectively blocked it
- level of kidney damage in the blood (renal function test) ([6]; C57BL/6 mice, renal IRI (bilateral clamping 30 min), 60 mg/kg intraperitoneal, FIG. 1a, 1b): a significant decrease
- damage to renal tubular epithelial cells, PAS staining ([6]; C57BL/6 mice, renal IRI, 60 mg/kg intraperitoneal, FIG. 1c): reduced damage to renal tubular epithelial cells
- renal fibrosis, Trichrome stain ([6]; C57BL/6 mice, renal IRI, 60 mg/kg intraperitoneal, FIG. 4a, 4b): fibrosis was significantly reduced
- tissue damage due to ischemia-reperfusion (IRI-mediated damage) [6]: significantly attenuated IRI-mediated damage
- tissue damage due to ischemia-reperfusion (IRI-mediated damage) ([6]; listed as compound of Formula 1): exhibits an effect of alleviating tissue damage due to ischemia-reperfusion
- phosphorylation of ERK in kidney tissue (western blot) (ERK [7]): effectively reduced it; also recorded: affect ERK signaling
